Experimental data taken from patent US4957927A, “(Diarylmethoxy alkyl)-1-pyrrolidines and piperidines having cardiovascular activity” (Lipha, Lyonnaise Industrielle Pharmaceutique, priority 1988, dated 1990).
Where a name gives a salt, the structure may show the parent alone.

Tests used:
[1] = tested on: isolated depolarized artery of the rabbit's ear; assay: decrease in perfusion pressure (calcium-inhibitive effect) on the isolated depolarized artery of the rabbit's ear; conditions: Table 1; single dose of 10 μg injected into the perfusion system; hyperpotassic depolarizing solution; average of at least three artery fragments; measured at peak of action
Method: The calcium-inhibitive effect was researched in vitro using the method described by J. M. Van Neuten (Eur. J. Pharmacol., 1969, 6, 286) on the isolated depolarized artery of the rabbit's ear:
A fragment of the central artery of the ear was cannulated and suspended in 100 ml of a Tyrode solution [NaCl: 136.90 mmole/l; KCl: 2.68 mmole/l; CaCl2 : 3.60 mmole/l; MgCl2 : 1.04 mmole/l; NaH2 PO4 : 0.42 mmole/l; glucose: 5.55 mmole/l, NaHCO3 : 11.90 mmole/l ]. The fragment was oxygenated (O2 : 95%; CO2 : 5%) and perfused with a constant 2-ml/minute flow of Tyrode at 37° C. Pressure changes in the perfusion circuit were recorded continuously using a pressure sensor. After an equilibration period, the Tyrode was replaced with a hyperpotassic depolarizing solution [NaCl: 39.33 mmole/l; KCl: 99.83 mmole/l; CaCl2 : 3.60 mmole/l; MgCl2 : 1.04 mmole/l; NaH2 PO4 : 0.42 mmole/l; glucose: 5.55 mmole/l; NaHCO3 : 11.90 mmole/l ], which, because of intracellular calcium penetration, caused significant and durable vasoconstriction, antagonized by a calcium inhibitor. The products according to the invention were tested in a single dose of 10 μg administered by injection into the perfusion system, at a rate of 0.1 ml for 10 seconds. […] The effects of the products according to the invention on vasoconstriction induced by the hyperpotassic solution were monitored for several hours. The intensity was measured at the peak of their action.
Each product was tested on at least three artery fragments. Table I includes the average decreases in perfusion pressure observed for a few products according to the invention.

calmodulin = calmodulin (Bos taurus, UniProt P62157); assay: anti-calmodulin activity (calmodulin activation of Type I cardiac phosphodiesterase); assay type: biochemical
Method: The principle of the method used is the activating effect calmodulin has on the basic enzyme activity of Type I cardiac phosphodiesterase (H. C. Ho et al., Biochim. Biophys. Acta 1976, 429, 461). Enzyme activity is measured using the W. J. Thomson and H. M. Appleman technique (Biochemistry, 1971, 10, 311).

[2] = acute oral toxicity (lethal dose 50) in rats; conditions: rat, in vivo
Text: Thus, the compound in example 10 has a lethal dose 50 in rats greater than 1 g/kg when administered orally.

| Structure (SMILES) | % drop in perfusion pressure ± standard error [1] | IC50 (calmodulin) | LD50 [2] |
| --- | --- | --- | --- |
| COc1cccc(C2CCN(CCOC(c3ccccc3)c3ccccc3)C2)c1.O=C(O)C(=O)O (stereo not shown) [Example 1, 1-[2-(diphenylmethoxy)ethyl]-3-(3-methoxyphenyl)pyrrolidine oxalate] | 56 ± 6% | – | – |
| COc1ccc(C2CCN(CCOC(c3ccccc3)c3ccccc3)C2)cc1OC (stereo not shown) [Example 4, 3-(3,4dimethoxyphenyl)-1-[2-diphenylmethoxy)ethyl]pyrrolidine oxalate] | 54 ± 5% | – | – |
| COc1cccc(C2CCN(CCOC(c3ccc(F)cc3)c3ccc(F)cc3)C2)c1 (stereo not shown) [Example 10, 1-[2-[bis(4-fluorophenyl)methoxy]ethyl]-3-(3-methoxyphenyl)pyrrolidine] | 59 ± 4% | 83 µM | > 1000 mg/kg |
| COc1cccc(C2CCCN2CCOC(c2ccccc2)c2ccccc2)c1 (stereo not shown) [Example 11, 1-[2-(diphenylmethoxy)ethyl]-2-(3-methoxyphenyl)pyrrolidine] | 56 ± 5% | – | – |
| COc1ccccc1C1CCN(CCOC(c2ccccc2)c2ccccc2)C1 (stereo not shown) [Example 13, 1-[2-diphenylmethoxy)ethyl]-3-(2-methoxyphenyl) pyrrolidine maleate] | 58 ± 5% | – | – |
| CC(C)Oc1cccc(C2CCN(CCOC(c3ccc(F)cc3)c3ccc(F)cc3)C2)c1 (stereo not shown) [Example 14, 1-[2-[bis(4-fluorophenyl)methoxy]ethyl]-3-(3-isopropoxyphenyl)pyrrolidine] | 54 ± 5% | – | – |
| COc1cc(OC)cc(C2CCN(CCOC(c3ccc(F)cc3)c3ccc(F)cc3)C2)c1 (stereo not shown) [Example 15, 1-[2-[bis(4-fluorophenyl)methoxy]ethyl]-3-(3,5-dimethoxyphenyl)pyrrolidine fumarate] | 52 ± 5% | – | – |
| Fc1ccc(C(c2ccc(F)cc2)N2CCN(C/C=C/c3ccccc3)CC2)cc1 [flunarizine, reference compound] | 41 ± 4% | – | – |
